Literature values as cited in patent US20150045288A1, “COMPOSITION” (priority 2012, published 2015).
Where two headings read alike, the source gives them in different places.

Details: 50% ethanol solution

In the case of difficidin, the “t90 (time at which 90% of the inhibitory substance remains as tested by HPLC)” value (pH 3.5, room temperature) is listed as 2 h and the “t90 (time at which 90% of the inhibitory substance remains as tested by HPLC)” value (pH 11, room temperature) is listed as 17 h.
